These results are taken from the PolyMetriX glass transition set.

Structures are written as SMILES.

Regarding `*C#Cc1ccccc1C#C[SiH](*)c1ccccc1` (repeat unit), the glass transition temperature was determined as 71.00 °C.

`*C(=O)Nc1c(C)cc(Cc2cc(C)c(NC(=O)c3ccc4c(c3)C(=O)N(c3ccc(/N=N/c5ccc(OC(F)(F)F)cc5)c(N5C(=O)c6ccc(*)cc6C5=O)c3)C4=O)c(C)c2)cc1C` (repeat unit) registered a glass transition temperature of 278.00 °C.

As to `*CCCCCCNC(=O)Cc1ccc(CC(=O)N*)cc1` (repeat unit), the glass transition temperature was found to be 95.00 °C.

`*CCCCCCOC(=O)C(CCCCP(=O)(OCC)OCC)C(=O)OCCCCCCOc1ccc(-n2on2-c2ccc(O*)cc2)cc1` (repeat unit) gave a glass transition temperature of 4.00 °C.

`*CCCCCCOC(=O)c1cc(OCCCCCCOc2ccc(/N=N/c3ccc(C#N)cc3)cc2)cc(C(=O)OCCCCCCN2C(=O)c3ccc(-c4ccc5c(c4)C(=O)N(*)C5=O)cc3C2=O)c1` (repeat unit) came in with a glass transition temperature of 93.00 °C.

In turn, `*CCCCCCOC(=O)c1cc(OCCCCCCOc2ccc(/N=N/c3ccc(C#N)cc3)cc2)cc(C(=O)OCCCCCCN2C(=O)c3ccc(Oc4ccc5c(c4)C(=O)N(*)C5=O)cc3C2=O)c1` (repeat unit) displayed a glass transition temperature of 61.00 °C.

Regarding `*CCCCCNC(=O)Cc1ccc(C(=O)N*)cc1` (repeat unit), the glass transition temperature amounted to 103.00 °C.

In the case of `*CCCCNC(=O)Cc1ccc(C(=O)N*)cc1` (repeat unit), the glass transition temperature was determined as 84.00 °C.

The molecule `*CCN(CCOC(=O)c1cc(OCCN(C)c2ccc(S(=O)(=O)C(F)(F)C(F)(F)C(F)(F)C(F)(F)C(F)(F)C(F)(F)C(F)(F)C(F)(F)F)cc2)cc(C(=O)O*)c1)c1ccc(S(=O)(=O)C(F)(F)C(F)(F)C(F)(F)C(F)(F)C(F)(F)C(F)(F)C(F)(F)C(F)(F)F)cc1` (repeat unit) yielded a glass transition temperature of 83.00 °C.

Molecule `*Cc1cc(C23CC4CC(CC(C4)C2)C3)cc(CN(*)C)c1O` (repeat unit) displayed a glass transition temperature of 188.80 °C.

For the molecule `*Cc1cc2cc(C(=O)Nc3ccc(-c4ccc(NC(=O)c5cc6cc(*)c(OC(=O)COc7ccc8ccc(=O)oc8c7)cc6oc5=O)cc4)cc3)c(=O)oc2cc1OC(=O)COc1ccc2ccc(=O)oc2c1` (repeat unit), the glass transition temperature is 248.00 °C.

`*Cc1cc2cc(C(=O)Nc3ccc(Cc4ccc(NC(=O)c5cc6cc(*)c(OC(=O)COc7ccc8ccc(=O)oc8c7)cc6oc5=O)cc4)cc3)c(=O)oc2cc1OC(=O)COc1ccc2ccc(=O)oc2c1` (repeat unit) had a glass transition temperature of 221.00 °C.

On to `*Cc1cc2cc(C(=O)Nc3cccc(NC(=O)c4cc5cc(*)c(OC(=O)COc6ccc7ccc(=O)oc7c6)cc5oc4=O)c3)c(=O)oc2cc1OC(=O)COc1ccc2ccc(=O)oc2c1` (repeat unit), for which the glass transition temperature was found to be 240.00 °C.

The molecule `*Oc1ccc(CC(NC(=O)CCc2ccc(OC(=O)CCC(*)=O)cc2)C(=O)OC)cc1` (repeat unit) yielded a glass transition temperature of 91.50 °C.

In turn, `*Oc1ccc(CC(NC(=O)CCc2ccc(OC(=O)CCC(*)=O)cc2)C(=O)OCC(C)C)cc1` (repeat unit) returned a glass transition temperature of 75.00 °C.

`*Oc1ccc(CC(NC(=O)CCc2ccc(OC(=O)CCC(*)=O)cc2)C(=O)OCCCC)cc1` (repeat unit): the glass transition temperature amounted to 67.00 °C.

Regarding `*Oc1ccc(CC(NC(=O)CCc2ccc(OC(=O)CCC(*)=O)cc2)C(=O)OCCCCCC)cc1` (repeat unit), the glass transition temperature came out at 53.00 °C.

`*Oc1ccc(CC(NC(=O)CCc2ccc(OC(=O)CCC(*)=O)cc2)C(=O)OCCOCCOCC)cc1` (repeat unit) came in with a glass transition temperature of 34.00 °C.

`*Oc1ccc(CC(NC(=O)CCc2ccc(OC(=O)CCCC(*)=O)cc2)C(=O)OC(C)CC)cc1` (repeat unit) came in with a glass transition temperature of 52.00 °C.

With `*Oc1ccc(CC(NC(=O)CCc2ccc(OC(=O)CCCC(*)=O)cc2)C(=O)OCC)cc1` (repeat unit), the glass transition temperature was 70.00 °C.

`*Oc1ccc(CC(NC(=O)CCc2ccc(OC(=O)CCCC(*)=O)cc2)C(=O)OCCCCCC)cc1` (repeat unit): the glass transition temperature worked out at 43.00 °C.

On to `*Oc1ccc(CC(NC(=O)Cc2ccc(OC(=O)CC(C)CCC(*)=O)cc2)C(=O)OCCCCCCCC)cc1` (repeat unit), for which the glass transition temperature came to 30.00 °C.

`*Oc1ccc(CC(NC(=O)Cc2ccc(OC(=O)CCC(*)=O)cc2)C(=O)OCCCCCCCC)cc1` (repeat unit) registered a glass transition temperature of 51.00 °C.

`*Oc1ccc(CC(NC(=O)Cc2ccc(OC(=O)CCCC(*)=O)cc2)C(=O)OCCCCCCCC)cc1` (repeat unit) registered a glass transition temperature of 38.00 °C.

With `*Oc1ccc(S(=O)(=O)c2ccc(Oc3c(C)cc(Cc4cc(C)c(*)c(C)c4)cc3C)cc2)cc1` (repeat unit), the glass transition temperature amounted to 232.00 °C.

For `*c1c(C)cc(-c2cc(C)c(N3C(=O)c4cccc(Oc5c(C)cc(Cc6cc(C)c(Oc7cccc8c7C(=O)N(*)C8=O)c(C)c6)cc5C)c4C3=O)c(C)c2)cc1C` (repeat unit), the glass transition temperature is 276.00 °C.

`*c1c(C)cc(Cc2cc(C)c(N3C(=O)c4cccc(Oc5c(C)cc(Cc6cc(C)c(Oc7cccc8c7C(=O)N(*)C8=O)c(C)c6)cc5C)c4C3=O)c(C)c2)cc1C` (repeat unit) registered a glass transition temperature of 243.00 °C.

`*c1ccc(CC(=O)Nc2ccc(Oc3ccc(NC(=O)Cc4ccc(-c5sc(*)c(-c6ccccc6)c5-c5ccccc5)cc4)cc3)cc2)cc1` (repeat unit) registered a glass transition temperature of 226.00 °C.

Molecule `*c1ccc(CC(=O)Nc2cccc3c(NC(=O)Cc4ccc(-c5sc(*)c(-c6ccccc6)c5-c5ccccc5)cc4)cccc23)cc1` (repeat unit) returned a glass transition temperature of 255.00 °C.

As for `*c1ccc(Cc2ccc(N3C(=O)c4ccc(-c5ccc6c(c5)C(=O)N(*)C6=O)cc4C3=O)c(C(C)(C)C)c2)cc1C(C)(C)C` (repeat unit), the glass transition temperature came to 324.00 °C.

Consider `*c1ccc(Cc2ccc(N3C(=O)c4cccc5c(N6CCC(CCCC7CCN(c8ccc9c%10c(cccc8%10)C(=O)N(*)C9=O)CC7)CC6)ccc(c45)C3=O)c(C(C)(C)C)c2)cc1C(C)(C)C` (repeat unit), for which the glass transition temperature was found to be 202.70 °C.

`*c1ccc(NC(=O)Cc2ccc(-c3sc(-c4ccc(CC(=O)Nc5ccc(-c6sc(*)c(-c7ccccc7)c6-c6ccccc6)cc5)cc4)c(-c4ccccc4)c3-c3ccccc3)cc2)cc1` (repeat unit) displayed a glass transition temperature of 273.00 °C.

Turning to `*c1ccc(Oc2ccc(-c3ccc(Oc4ccc(N5C(=O)c6cccc(Oc7c(C)cc(Cc8cc(C)c(Oc9cccc%10c9C(=O)N(*)C%10=O)c(C)c8)cc7C)c6C5=O)cc4)cc3)cc2)cc1` (repeat unit), the glass transition temperature worked out at 259.00 °C.

With `*c1ccc(Oc2ccc(N3C(=O)c4ccc(Oc5c(C)cc(Cc6cc(C)c(Oc7ccc8c(c7)C(=O)N(*)C8=O)c(C)c6)cc5C)cc4C3=O)cc2)cc1` (repeat unit), the glass transition temperature stood at 266.00 °C.

As to `*c1ccc2c(c1)C(=O)N(c1ccc(Oc3c(C)cc(Cc4cc(C)c(Oc5ccc(N6C(=O)c7ccc(C(*)(C(F)(F)F)C(F)(F)F)cc7C6=O)cc5)c(C)c4)cc3C)cc1)C2=O` (repeat unit), the glass transition temperature amounted to 298.00 °C.

Turning to `*c1cccc(N2C(=O)c3ccc(Oc4c(C)cc(Cc5cc(C)c(Oc6ccc7c(c6)C(=O)N(*)C7=O)c(C)c5)cc4C)cc3C2=O)c1` (repeat unit), the glass transition temperature is 245.00 °C.
